# Measurements as given in paper PMC3726784, “Synthesis, Structure and Antibacterial Activity of Potent DNA Gyrase Inhibitors: N′-Benzoyl-3-(4-Bromophenyl)-1H-Pyrazole-5-Carbohydrazide Derivatives” (PLoS ONE, 2013).
# How the values were obtained:
# [1] = system: Bacillus subtilis ATCC 6633; test: In vitro antibacterial assay (MIC, MTT colorimetric method); assay type: cell-based; conditions: B. subtilis ATCC 6633, MH medium, 37°C; for MIC: Bacillus subtilis, ATCC6633, 24 h, read-out: Minimum inhibitory concentrations, B. subtilis
# Description: (§1) The activities of synthesized compounds were tested against Bacillus subtilis ATCC 6633, Escherichia coli ATCC 35218, Pseudomonas aeruginosa ATCC 27853 and Staphylococcus aureus ATCC 6538 which may be causal agents of some serious infections in humans using MH medium (Mueller-Hinton medium: casein hydrolysate 17.5 g, soluble starch 1.5 g, beef extract 1000 mL). Also included are the activities of reference compounds kanamycin.
# (§2) The antibacterial activity of the synthesized compounds was tested against B. subtilis, E. coli, P. aeruginosa and S. aureus using MH medium (Mueller-Hinton medium: casein hydrolysate 17.5 g, soluble starch 1.5 g, beef extract 1000 mL). The MICs (minimum inhibitory concentrations) of the test compounds were determined by a colorimetric method using the dye MTT (3-(4,5-dimethylth-iazol-2-yl)-2,5-diphenyl tetrazoliumbromide). A stock solution of the synthesized compound (100 µg/mL) in DMSO was prepared and graded quantities of the test compounds were incorporated in specified quantity of sterilized liquid MH medium. A specified quantity of the medium containing the compound was poured into microtitration plates. Suspension of the microorganism was prepared to contain approximately 10^5 cfu/mL and applied to microtitration plates with serially diluted compounds in DMSO to be tested and incubated at 37°C for 24 h. After the MICs were visually determined on each of the microtitration plates, 50 µL of PBS (phosphate buffered saline 0.01 mol/L, pH 7.4, Na2HPO4·12H2O 2.9 g, KH2PO4 0.2 g, NaCl 8.0 g, KCl 0.2 g, distilled water 1000 mL) containing 2 mg of MTT/mL was added to each well. Incubation was continued at room temperature for 4–5 h. The content of each well was removed, and 100 µL of isopropanol containing 5% 1 mol/L HCl was added to extract the dye. After 12 h of incubation at room temperature, the optical density (OD) was measured with a microplate reader at 550 nm.
# [2] = system: Escherichia coli ATCC 35218; test: as above; assay type: cell-based; conditions: E. coli ATCC 35218, MH medium, 37°C, 24 h; for MIC: Escherichia coli, ATCC35218, read-out: Minimum inhibitory concentrations, E. coli
# Description: as §1, §2
# [3] = system: Pseudomonas aeruginosa ATCC 27853; test: as above; assay type: cell-based; conditions: P. aeruginosa ATCC 27853, MH medium, 37°C, 24 h; for MIC: Pseudomonas aeruginosa, ATCC27853, read-out: Minimum inhibitory concentrations, P.aeruginosa
# Description: as §1, §2
# [4] = system: Staphylococcus aureus ATCC 6538; test: as above; assay type: cell-based; conditions: S. aureus ATCC 6538, MH medium, 37°C, 24 h; for MIC: Staphylococcus aureus, ATCC6538, read-out: Minimum inhibitory concentrations, S. aureus
# Description: as §1, §2
# S. aureus DNA gyrase = molecular target: T1, S. aureus DNA gyrase (Staphylococcus aureus, UniProt P0A0K8); test: biochemical; conditions: enzyme purified from S. aureus, supercoiling
# T1 construct: purified by the F. Blanche [25] from a crude extract of S. aureus; endogenous in cells
# Excerpt: (§3) To elucidate the mechanism by which the pyrazole derivatives induce antibacterial activity, the inhibitory activities of selected compounds were examined against DNA gyrase isolated from B. subtilis and S. aureus.
# The S. aureus DNA gyrase were purified by the F. Blanche from a crude extract of S. aureus and cultivated with medium B, which was composed of 10 g of polypeptone, 2 g of yeast extract, 8 g of Na2HPO4, 2 g of KH2PO4, 1.2 g of (NH4)2SO4, 0.2 g of MgSO4, 4 g of glucose perliter of distilled water. Supercoiling and decatenation were performed according to F. B lanche.
# B. subtilis DNA gyrase = B. subtilis DNA gyrase (Bacillus subtilis, UniProt P05652); test: biochemical
# Description: as §3
# The B. subtilis DNA gyrase were purified by the methods of E. Orr.: Cells were suspended in an equal volume of 25 mM HEPES-KOH (pH 8.0)-100 mM KCl and stored frozen at −70°C. The frozen cell suspension was thawed and diluted with an equal volume of 25 mM HEPES-KOH (pH 8.0)-0.4 M sucrose-20 mM magnesium acetate-1 mM dithiothreitol-5 mM PMSF. All operations were performed at 0–4°C. Lysozyme was added to a final concentration, and the mixture was incubated for 2.5 h. One-third volume of 2 M KCl-1.5% Brij was added, and the incubation was continued for 15 min. The lysate was then centrifuged for 90 min intirotor. The supernatant was adjusted to a KCl concentration of 0.2 M by dilution with 25 mM HEPES-KOH (pH 8.0)-1 mM dithiothreitol-1mMEDTA-0.5 mM pmsf-10% ethylene glycol and applied to a column. The column was washed with starting buffer and eluted successively with buffer containing 20 mM ATP-25 mM magnesium acetate-0.2 M KCI, buffer (2 M KCI), and 5 M urea in buffer (0.2 M KCl).Protein-containing fractions were dialyzed against buffer (0.05 MKCI). Supercoiling and decatenation were carried out by the F. Blanche method.
# T1 sequence (P0A0K8 whole entry): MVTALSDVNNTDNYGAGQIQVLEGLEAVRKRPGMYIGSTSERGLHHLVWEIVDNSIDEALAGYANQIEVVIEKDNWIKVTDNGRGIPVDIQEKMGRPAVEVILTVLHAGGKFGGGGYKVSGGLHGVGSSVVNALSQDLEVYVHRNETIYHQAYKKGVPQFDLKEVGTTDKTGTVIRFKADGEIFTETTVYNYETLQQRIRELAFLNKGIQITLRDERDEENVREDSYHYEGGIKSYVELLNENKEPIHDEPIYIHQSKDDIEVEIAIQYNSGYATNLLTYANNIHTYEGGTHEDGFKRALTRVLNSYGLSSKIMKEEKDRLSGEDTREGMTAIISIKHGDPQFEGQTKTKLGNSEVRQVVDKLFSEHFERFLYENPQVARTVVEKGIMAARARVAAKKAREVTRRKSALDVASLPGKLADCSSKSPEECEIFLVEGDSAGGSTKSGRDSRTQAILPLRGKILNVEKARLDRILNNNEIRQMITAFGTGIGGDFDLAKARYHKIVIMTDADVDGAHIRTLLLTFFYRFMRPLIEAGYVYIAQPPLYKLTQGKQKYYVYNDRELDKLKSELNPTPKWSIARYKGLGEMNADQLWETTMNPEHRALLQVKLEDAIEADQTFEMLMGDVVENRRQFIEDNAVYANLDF
# T1 sequence (P20831 whole entry partner): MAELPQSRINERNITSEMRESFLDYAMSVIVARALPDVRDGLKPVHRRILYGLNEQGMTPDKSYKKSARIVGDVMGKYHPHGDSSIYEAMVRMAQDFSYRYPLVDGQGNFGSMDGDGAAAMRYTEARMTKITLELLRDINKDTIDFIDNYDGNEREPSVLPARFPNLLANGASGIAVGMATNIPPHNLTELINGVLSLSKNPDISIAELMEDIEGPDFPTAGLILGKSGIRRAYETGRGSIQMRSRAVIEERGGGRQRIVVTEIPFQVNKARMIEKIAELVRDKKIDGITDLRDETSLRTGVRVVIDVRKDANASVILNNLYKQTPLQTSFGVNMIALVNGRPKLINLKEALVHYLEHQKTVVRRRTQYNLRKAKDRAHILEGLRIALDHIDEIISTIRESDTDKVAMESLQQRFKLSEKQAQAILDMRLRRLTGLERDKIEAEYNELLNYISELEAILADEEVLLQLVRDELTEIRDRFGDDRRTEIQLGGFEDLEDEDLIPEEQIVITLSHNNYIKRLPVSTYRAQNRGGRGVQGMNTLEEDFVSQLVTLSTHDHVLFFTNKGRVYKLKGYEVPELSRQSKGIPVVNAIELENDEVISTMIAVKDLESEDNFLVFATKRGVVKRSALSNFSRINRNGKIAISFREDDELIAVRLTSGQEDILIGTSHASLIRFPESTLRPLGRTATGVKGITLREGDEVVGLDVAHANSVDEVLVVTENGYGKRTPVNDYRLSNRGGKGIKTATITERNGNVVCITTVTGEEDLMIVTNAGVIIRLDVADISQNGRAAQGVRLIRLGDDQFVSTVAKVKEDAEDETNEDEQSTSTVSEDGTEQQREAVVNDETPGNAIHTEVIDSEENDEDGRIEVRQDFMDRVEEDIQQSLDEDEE
# Chain of B. subtilis DNA gyrase (P05652 whole entry): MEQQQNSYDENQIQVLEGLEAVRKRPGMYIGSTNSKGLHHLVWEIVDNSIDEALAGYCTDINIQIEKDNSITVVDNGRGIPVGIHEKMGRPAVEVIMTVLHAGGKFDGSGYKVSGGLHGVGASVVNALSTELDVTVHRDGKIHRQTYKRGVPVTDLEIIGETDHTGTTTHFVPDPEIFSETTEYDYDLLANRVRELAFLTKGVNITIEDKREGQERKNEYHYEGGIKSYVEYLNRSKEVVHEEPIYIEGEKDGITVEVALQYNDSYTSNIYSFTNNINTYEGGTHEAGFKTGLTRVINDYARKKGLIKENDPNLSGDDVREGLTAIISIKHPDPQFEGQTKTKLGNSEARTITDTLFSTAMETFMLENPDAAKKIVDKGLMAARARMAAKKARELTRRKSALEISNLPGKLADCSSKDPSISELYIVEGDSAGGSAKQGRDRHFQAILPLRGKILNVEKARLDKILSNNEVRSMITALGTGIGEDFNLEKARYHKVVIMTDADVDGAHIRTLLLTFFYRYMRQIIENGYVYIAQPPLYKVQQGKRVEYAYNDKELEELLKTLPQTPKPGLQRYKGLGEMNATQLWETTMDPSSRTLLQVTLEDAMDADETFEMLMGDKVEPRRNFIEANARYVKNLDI
# Chain of B. subtilis DNA gyrase (P05653 whole entry, further chain): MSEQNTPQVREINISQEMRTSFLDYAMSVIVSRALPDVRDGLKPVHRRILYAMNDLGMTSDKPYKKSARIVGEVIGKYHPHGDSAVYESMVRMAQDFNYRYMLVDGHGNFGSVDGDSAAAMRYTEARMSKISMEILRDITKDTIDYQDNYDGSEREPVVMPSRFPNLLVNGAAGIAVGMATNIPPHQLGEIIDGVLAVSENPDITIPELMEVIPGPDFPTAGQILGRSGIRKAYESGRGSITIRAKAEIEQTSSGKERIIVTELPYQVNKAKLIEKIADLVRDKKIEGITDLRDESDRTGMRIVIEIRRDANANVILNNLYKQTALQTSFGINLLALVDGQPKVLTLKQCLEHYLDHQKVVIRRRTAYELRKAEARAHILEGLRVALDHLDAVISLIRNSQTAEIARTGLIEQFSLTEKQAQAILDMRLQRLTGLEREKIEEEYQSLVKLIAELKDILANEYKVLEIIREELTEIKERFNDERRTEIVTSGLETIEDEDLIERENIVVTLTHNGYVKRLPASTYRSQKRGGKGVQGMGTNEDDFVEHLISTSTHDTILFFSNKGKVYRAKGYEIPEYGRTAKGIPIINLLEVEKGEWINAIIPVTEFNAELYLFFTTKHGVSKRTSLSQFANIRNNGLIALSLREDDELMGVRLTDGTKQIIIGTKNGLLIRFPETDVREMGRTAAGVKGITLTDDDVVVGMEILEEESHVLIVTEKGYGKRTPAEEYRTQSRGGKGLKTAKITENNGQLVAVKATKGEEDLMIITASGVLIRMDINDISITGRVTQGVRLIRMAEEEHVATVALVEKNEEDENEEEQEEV
Compound,MIC [1] [µg/mL],MIC [2] [µg/mL],MIC [3] [µg/mL],MIC [4] [µg/mL],melting point [°C],IC50 (S. aureus DNA gyrase) [µM],IC50 (B. subtilis DNA gyrase) [µM],"Minimum inhibitory concentrations, B. subtilis ([1]; 24 h) [µg/mL]","Minimum inhibitory concentrations, E. coli [2] [µg/mL]","Minimum inhibitory concentrations, P.aeruginosa [3] [µg/mL]","Minimum inhibitory concentrations, S. aureus [4] [µg/mL]"
"O=C(NNC(=O)c1cc(-c2ccc(Br)cc2)n[nH]1)c1cccc([N+](=O)[O-])c1 [3l, 3-(4-Bromophenyl)-N'-(3-nitrobenzoyl)-1H-pyrazole-5-carbohydrazide]",10.8,> 50,50,10.8,275 to 276,–,–,–,–,–,–
"COc1cccc(C(=O)NNC(=O)c2cc(-c3ccc(Br)cc3)n[nH]2)c1 [3k, 3-(4-Bromophenyl)-N'-(3-methoxybenzoyl)-1H-pyrazole-5-carbohydrazide]",–,50,12.5,0.78,251 to 253,0.361,0.602,–,–,–,–
"O=C(NNC(=O)c1cc(-c2cccc(Br)c2)n[nH]1)c1ccc(Br)cc1 [3i, N'-(4-Bromobenzoyl)-3-(3-bromophenyl)-1H-pyrazole-5-carbohydrazide]",12.6,> 50,50,12.1,229 to 231,–,–,–,–,–,–
Penicillin [reference compound],–,–,–,–,–,–,–,1.56,6.25,6.25,1.56
"Cc1cccc(C(=O)NNC(=O)c2cc(-c3ccc(Br)cc3)n[nH]2)c1 [3j, 3-(4-Bromophenyl)-N'-(3-methylbenzoyl)-1H-pyrazole-5-carbohydrazide]",–,50,12.5,1.12,287 to 288,0.326,8.14,–,–,–,–
"O=C(NNC(=O)c1ccccc1Cl)c1cc(-c2ccc(Br)cc2)n[nH]1 [3n, 3-(4-Bromophenyl)-N'-(2-chlorobenzoyl)-1H-pyrazole-5-carbohydrazide]",12.2,> 50,> 50,17,280 to 281,–,–,–,–,–,–
"O=C(NNC(=O)c1ccccc1F)c1cc(-c2ccc(Br)cc2)n[nH]1 [3m, 3-(4-Bromophenyl)-N'-(2-fluorobenzoyl)-1H-pyrazole-5-carbohydrazide]",25,> 50,> 50,22.1,297 to 298,–,–,–,–,–,–
"O=C(NNC(=O)c1cc(-c2ccc(Br)cc2)n[nH]1)c1ccccc1 [3s, N'-Benzoyl-3-(4-bromophenyl)-1H-pyrazole-5-carbohydrazide]",10.6,12.5,12.5,10.6,288 to 290,8.44,2.6,–,–,–,–
"O=C(NNC(=O)c1cc(-c2ccccc2Br)n[nH]1)c1ccc(Br)cc1 [3o, N'-(4-Bromobenzoyl)-3-(2-bromophenyl)-1H-pyrazole-5-carbohydrazide]",23.1,> 50,> 50,21,281 to 283,–,–,–,–,–,–
"COc1ccccc1C(=O)NNC(=O)c1cc(-c2ccc(Br)cc2)n[nH]1 [3q, 3-(4-Bromophenyl)-N'-(2-methoxybenzoyl)-1H-pyrazole-5-carbohydrazide]",20.6,> 50,> 50,18.7,287 to 290,–,–,–,–,–,–
"O=C(NNC(=O)c1cc(-c2ccc(Br)cc2)n[nH]1)c1ccc(F)cc1 [3a, 3-(4-Bromophenyl)-N'-(4-fluorobenzoyl)-1H-pyrazole-5-carbohydrazide]",12.5,> 50,50,15,284 to 287,–,–,–,–,–,–
"O=C(NNC(=O)c1cc(-c2ccc(Br)cc2)n[nH]1)c1cccc(Cl)c1 [3h, 3-(4-Bromophenyl)-N'-(3-chlorobenzoyl)-1H-pyrazole-5-carbohydrazide]",6.25,> 50,50,12.6,246 to 248,–,–,–,–,–,–
"O=C(NNC(=O)c1ccccc1[N+](=O)[O-])c1cc(-c2ccc(Br)cc2)n[nH]1 [3r, 3-(4-Bromophenyl)-N'-(2-nitrobenzoyl)-1H-pyrazole-5-carbohydrazide]",50,> 50,> 50,25,266 to 267,–,–,–,–,–,–
"O=C(NNC(=O)c1cc(-c2ccc(Br)cc2)n[nH]1)c1ccc(Br)cc1 [3c, N'-(4-Bromobenzoyl)-3-(4-bromophenyl)-1H-pyrazole-5-carbohydrazide]",10.2,> 50,50,13.8,297 to 298,–,–,–,–,–,–
"O=C(NNC(=O)c1cc(-c2ccc(Br)cc2)n[nH]1)c1ccc(Cl)cc1 [3b, 3-(4-Bromophenyl)-N'-(4-chlorobenzoyl)-1H-pyrazole-5-carbohydrazide]",17.1,> 50,50,15,280 to 283,–,–,–,–,–,–
"Cc1ccccc1C(=O)NNC(=O)c1cc(-c2ccc(Br)cc2)n[nH]1 [3p, 3-(4-Bromophenyl)-N'-(2-methylbenzoyl)-1H-pyrazole-5-carbohydrazide]",12.2,50,12.5,8.08,292 to 294,13,1.25,–,–,–,–
"O=C(NNC(=O)c1cc(-c2ccc(Br)cc2)n[nH]1)c1cccc(F)c1 [3g, 3-(4-Bromophenyl)-N'-(3-fluorobenzoyl)-1H-pyrazole-5-carbohydrazide]",25,> 50,50,13,278 to 280,–,–,–,–,–,–
"O=C(NNC(=O)c1cc(-c2ccc(Br)cc2)n[nH]1)c1ccc([N+](=O)[O-])cc1 [3f, 3-(4-Bromophenyl)-N'-(4-nitrobenzoyl)-1H-pyrazole-5-carbohydrazide]",25,> 50,> 50,18,255 to 257,–,–,–,–,–,–
"COc1ccc(C(=O)NNC(=O)c2cc(-c3ccc(Br)cc3)n[nH]2)cc1 [3e, 3-(4-Bromophenyl)-N'-(4-methoxybenzoyl)-1H-pyrazole-5-carbohydrazide]",10.1,50,12.5,6.68,281 to 282,8.19,29.5,–,–,–,–
"Cc1ccc(C(=O)NNC(=O)c2cc(-c3ccc(Br)cc3)n[nH]2)cc1 [3d, 3-(4-Bromophenyl)-N'-(4-methylbenzoyl)-1H-pyrazole-5-carbohydrazide]",–,50,12.5,3.66,270 to 272,3.76,6.51,–,–,–,–
